In ChEMBL document CHEMBL2046276, “Molecular cloning, characterization, and inhibition studies of a β-carbonic anhydrase from Malassezia globosa, a potential antidandruff target” (J Med Chem, 2012):
pKi: −log10 of the molar value. Values after ≈ are worked out from the molar mass of the structure shown. Active and inactive are the calls of the source. The rule behind the calls is not given here.

Experiments:
Carbonic anhydrase = target: T1, Carbonic anhydrase (Candida albicans (strain SC5314 / ATCC MYA-2876) (Yeast), UniProt Q5AJ71)
T1 sequence (Q5AJ71 whole entry): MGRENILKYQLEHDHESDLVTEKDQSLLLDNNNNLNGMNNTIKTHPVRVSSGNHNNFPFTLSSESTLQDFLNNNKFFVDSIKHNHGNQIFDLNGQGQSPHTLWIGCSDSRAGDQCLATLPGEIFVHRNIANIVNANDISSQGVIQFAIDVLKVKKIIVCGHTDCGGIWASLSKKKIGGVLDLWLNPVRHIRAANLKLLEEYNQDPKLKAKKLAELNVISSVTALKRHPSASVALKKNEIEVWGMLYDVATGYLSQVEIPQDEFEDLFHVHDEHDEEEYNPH

Malassezia dermatis = assay: microbe, parasite or virus in culture; details: CBS 9145, 168 h
Malassezia pachydermatis [1] = assay: microbe, parasite or virus in culture; details: CBS 6536, 168 h
Malassezia furfur = assay: microbe, parasite or virus in culture; details: CBS 9569, 168 h
[2] = microbe, parasite or virus in culture; details: Malassezia globosa, CBS 7966, 168 h
Malassezia pachydermatis [3] = assay: Antimicrobial activity against Malassezia pachydermatis infected in CD-1 mouse model of dandruff assessed as improvement in skin appearance at 5% cream administered once daily for 6 days measured daily for 20 days; type: functional
Malassezia pachydermatis [4] = assay: Antimicrobial activity against Malassezia pachydermatis infected in CD-1 mouse model of dandruff assessed as fungal hyphae fragmentation at 5% cream administered once daily for 6 days measured daily for 20 days; type: functional
Malassezia pachydermatis [5] = assay: Antimicrobial activity against Malassezia pachydermatis infected in CD-1 mouse model of dandruff assessed as improvement in skin appearance at 2% cream administered once daily for 6 days measured daily for 20 days; type: functional
Malassezia pachydermatis [6] = assay: Antimicrobial activity against Malassezia pachydermatis infected in CD-1 mouse model of dandruff assessed as fungal hyphae fragmentation at 2% cream administered once daily for 6 days measured daily for 20 days; type: functional

## NS(=O)(=O)Nc1ccc(Br)cc1
Carbonic anhydrase
  pKi: 6.12

## NS(=O)(=O)c1ccc(Br)cc1
Malassezia dermatis
  MIC: 320 µg/mL (≈ 1360 µM)
Malassezia pachydermatis [1]
  MIC: 320 µg/mL (≈ 1360 µM)
Malassezia furfur
  MIC: 320 µg/mL (≈ 1360 µM)
[2]
  MIC: 320 µg/mL (≈ 1360 µM)
Carbonic anhydrase
  pKi: 6.05

## Nc1cc(Cl)c(S(N)(=O)=O)cc1S(N)(=O)=O
Malassezia dermatis
  MIC: 640 µg/mL (≈ 2240 µM)
Malassezia pachydermatis [1]
  MIC: 640 µg/mL (≈ 2240 µM)
Malassezia furfur
  MIC: 640 µg/mL (≈ 2240 µM)
[2]
  MIC: 640 µg/mL (≈ 2240 µM)

## NS(=O)(=O)Oc1ccc(Br)cc1
Carbonic anhydrase
  pKi: 6.15

## Nc1ccccc1S(N)(=O)=O
Malassezia dermatis
  MIC: 640 µg/mL (≈ 3720 µM)
Malassezia pachydermatis [1]
  MIC: > 640 µg/mL
Malassezia furfur
  MIC: 640 µg/mL (≈ 3720 µM)
[2]
  MIC: 640 µg/mL (≈ 3720 µM)

## NCCc1ccc(S(N)(=O)=O)cc1
Malassezia dermatis
  MIC: 640 µg/mL (≈ 3200 µM)
Malassezia pachydermatis [3]
  Activity: 67%
Malassezia pachydermatis [1]
  MIC: 640 µg/mL (≈ 3200 µM)
Malassezia furfur
  MIC: 640 µg/mL (≈ 3200 µM)
[2]
  MIC: 320 µg/mL (≈ 1600 µM)
Malassezia pachydermatis [4]
  Activity: Active

## CC(=O)N1CCN(c2ccc(OCC3COC(Cn4ccnc4)(c4ccc(Cl)cc4Cl)O3)cc2)CC1 (configuration not stated)
Malassezia pachydermatis [5]
  Activity: Active
Malassezia pachydermatis [6]
  Activity: Active

## Nc1cc(C(F)(F)F)c(S(N)(=O)=O)cc1S(N)(=O)=O [2,4-DISULFAMYLTRIFLUOROMETHYLANILINE]
Malassezia dermatis
  MIC: > 640 µg/mL
Malassezia pachydermatis [1]
  MIC: > 640 µg/mL
Malassezia furfur
  MIC: > 640 µg/mL
[2]
  MIC: 320 µg/mL (≈ 1000 µM)

## NS(=O)(=O)c1ccccc1 [BENZENESULFONAMIDE]
Malassezia dermatis
  MIC: > 640 µg/mL
Malassezia pachydermatis [1]
  MIC: 160 µg/mL (≈ 1020 µM)
Malassezia furfur
  MIC: 160 µg/mL (≈ 1020 µM)
[2]
  MIC: 320 µg/mL (≈ 2040 µM)
Carbonic anhydrase
  pKi: 5.63

## NS(=O)(=O)c1ccc(C(=O)O)cc1 [CARZENIDE]
Malassezia dermatis
  MIC: > 640 µg/mL
Malassezia pachydermatis [1]
  MIC: 640 µg/mL (≈ 3180 µM)
Malassezia furfur
  MIC: > 640 µg/mL
[2]
  MIC: 640 µg/mL (≈ 3180 µM)

## NS(=O)(=O)c1cc(Cl)c(Cl)c(S(N)(=O)=O)c1 [DICHLORPHENAMIDE]
Malassezia dermatis
  MIC: > 640 µg/mL
Malassezia pachydermatis [1]
  MIC: > 640 µg/mL
Malassezia furfur
  MIC: > 640 µg/mL
[2]
  MIC: 320 µg/mL (≈ 1050 µM)

## NCc1ccc(S(N)(=O)=O)cc1 [MAFENIDE]
Malassezia dermatis
  MIC: 160 µg/mL (≈ 859 µM)
Malassezia pachydermatis [1]
  MIC: 160 µg/mL (≈ 859 µM)
Malassezia furfur
  MIC: 320 µg/mL (≈ 1720 µM)
[2]
  MIC: 160 µg/mL (≈ 859 µM)

## Cc1ccc(S(N)(=O)=O)cc1 [P-TOLUENESULFONAMIDE]
Malassezia furfur
  MIC: 640 µg/mL (≈ 3740 µM)
[2]
  MIC: 160 µg/mL (≈ 934 µM)

## NS(=O)(=O)Oc1ccccc1 [PHENYLSULFAMATE]
Carbonic anhydrase
  pKi: 5.70

## NS(=O)(=O)Nc1ccccc1 [PHENYLSULFAMIDE]
Carbonic anhydrase
  pKi: 5.72

## Nc1ccc(S(N)(=O)=O)cc1 [SULFANILAMIDE]
Malassezia dermatis
  MIC: 160 µg/mL (≈ 929 µM)
Malassezia pachydermatis [1]
  MIC: 10 µg/mL (≈ 58.1 µM)
Malassezia furfur
  MIC: 80 µg/mL (≈ 465 µM)
[2]
  MIC: 80 µg/mL (≈ 465 µM)
